Laboratory results as given in US20060069132A1, “Azolecarboxamide herbicides” (priority 2004, published 2006).

Experiments:
barnyardgrass [1] = experiment: Test A pre-/postemergence herbicide test; type: in vivo, Echinochloa crus-galli
Procedure, shortened: (§1)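 Visual injury rating on a 0–100 scale (0 no effect, 100 complete control) versus untreated controls, about ten days after treatment in greenhouse. Pre: directed soil spray onto seeded sandy loam. Post: spray to runoff on plants 2–10 cm tall at one- to two-leaf stage.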

large crabgrass [2] = experiment: Test A pre-/postemergence herbicide test; type: in vivo, Digitaria sanguinalis
Procedure, shortened: as §1

giant foxtail [3] = experiment: Test A pre-/postemergence herbicide test; type: in vivo, Setaria faberi
Procedure, shortened: as §1

morningglory [4] = experiment: Test A pre-/postemergence herbicide test; type: in vivo, Ipomoea spp.
Procedure, shortened: as §1

redroot pigweed = experiment: Test A pre-/postemergence herbicide test; type: in vivo, Amaranthus retroflexus
Procedure, shortened: as §1

velvetleaf [5] = experiment: Test A pre-/postemergence herbicide test; type: in vivo, Abutilon theophrasti
Procedure, shortened: as §1

barnyardgrass [6] = experiment: Test B pre-/postemergence herbicide test; type: in vivo, Echinochloa crus-galli; conditions: for Barnyardgrass plant response rating: postemergence
Procedure, shortened: (§2)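 Herbicidal effect was judged by eye on a 0–100 scale after plants stood 13 to 15 days in the greenhouse following pre- or postemergence treatment with surfactant-containing formulations.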

Surinam grass = experiment: Test B pre-/postemergence herbicide test; type: in vivo, Urochloa decumbens; conditions: for Surinam Grass plant response rating: postemergence
Procedure, shortened: (§3)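 Formulation: non-phytotoxic solvent mix with surfactant. Timing: preemergence on seed and postemergence on 2–18 cm plants, applied concurrently. Readout after 13–15 d greenhouse: visual 0–100 control rating against controls.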

cocklebur = experiment: Test B pre-/postemergence herbicide test; type: in vivo, Xanthium strumarium; conditions: for Cocklebur plant response rating: postemergence
Procedure, shortened: as §2

corn = experiment: Test B pre-/postemergence herbicide test; type: in vivo, Zea mays; conditions: for Corn plant response rating: postemergence
Procedure, shortened: as §3

large crabgrass [7] = experiment: Test B pre-/postemergence herbicide test; type: in vivo, Digitaria sanguinalis; conditions: for Crabgrass, Large plant response rating: postemergence
Procedure, shortened: as §3

giant foxtail [8] = experiment: Test B pre-/postemergence herbicide test; type: in vivo, Setaria faberi; conditions: for Foxtail, Giant plant response rating: postemergence
Procedure, shortened: as §3

lambsquarters = experiment: Test B pre-/postemergence herbicide test; type: in vivo, Chenopodium album; conditions: for Lambsquarters plant response rating: postemergence
Procedure, shortened: as §3

morningglory [9] = experiment: Test B pre-/postemergence herbicide test; type: in vivo, Ipomoea coccinea; conditions: for Morningglory plant response rating: postemergence
Procedure, shortened: as §2

pigweed = experiment: Test B pre-/postemergence herbicide test; type: in vivo, Amaranthus retroflexus; conditions: for Pigweed plant response rating: postemergence
Procedure, shortened: as §3

velvetleaf [10] = experiment: Test B pre-/postemergence herbicide test; type: in vivo, Abutilon theophrasti; conditions: for Velvetleaf plant response rating: postemergence
Procedure, shortened: as §3

blackgrass = experiment: Test B postemergence herbicide test; type: in vivo, Alopecurus myosuroides; conditions: postemergence
Procedure, shortened: (§4)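 Treated at 2-leaf (paddy) or 1–4-leaf, 2–18 cm (postemergence); greenhouse 13–15 d; visual score vs control, 0 none to 100 complete control; dash = not tested.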

wheat = experiment: Test B postemergence herbicide test; type: in vivo, Triticum aestivum; design: key to Wheat plant response rating: 0 = no effect, 100 = complete control; conditions: postemergence
Procedure, shortened: as §4

wild oat = experiment: Test B postemergence herbicide test; type: in vivo, Avena fatua; conditions: postemergence
Procedure, shortened: as §4

rice = experiment: Test B flooded paddy test; type: in vivo, Oryza sativa; conditions: 1000 g ai/ha, scale 0 to 100 (0 no effect, 100 complete control)
Procedure, shortened: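 Scale 0–100: zero equals no visible effect, 100 complete control, judged by eye relative to controls. Timing: 13 to 15 days in greenhouse post-treatment. Growth stage at spraying: two leaves (paddy) or one to four leaves, 2–18 cm (postemergence).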

[11] = test system: small flower umbrella sedge; experiment: Test B flooded paddy test; type: in vivo, Cyperus difformis; conditions: 1000 g ai/ha, scale 0 to 100 (0 no effect, 100 complete control)
Procedure, shortened: as §4

ducksalad = experiment: Test B flooded paddy test; type: in vivo, Heteranthera limosa; conditions: 1000 g ai/ha, scale 0 to 100 (0 no effect, 100 complete control)
Procedure, shortened: as §4

barnyardgrass [12] = experiment: Test B flooded paddy test; type: in vivo, Echinochloa crus-galli; conditions: 1000 g ai/ha, scale 0 to 100 (0 no effect, 100 complete control)
Procedure, shortened: as §4

[13] = Postemergence, 500 g ai/ha, 0 to 100 scale, 0 no effect, 100 complete control
[14] = Postemergence, 2000 g ai/ha, 0 to 100 scale, 0 no effect, 100 complete control
[15] = Preemergence, 2000 g ai/ha, visual rating, 0 to 100 scale (0 no effect, 100 complete control)
[16] = preemergence, 500 g ai/ha, visual injury, 0 to 100 scale (0 no effect, 100 complete control)
[17] = 125 g ai/ha, 0 = no effect, 100 = complete control, preemergence
[18] = 125 g ai/ha, visual rating, scale 0 (no effect) to 100 (complete control)
[19] = 500 g ai/ha, visual rating, 0 = no effect, 100 = complete control, preemergence
[20] = 500 g ai/ha, scale 0 to 100, 0 is no effect, 100 is complete control

COC(=O)c1cccc(NC(=O)c2cc(C(C)(C)C)nn2C)n1 [Compound 312]
0: Barnyardgrass plant response rating (barnyardgrass [1]; [13]) | Plant response rating, Barnyardgrass (barnyardgrass [1]; [14]) | Barnyardgrass plant response rating (barnyardgrass [1]; [15]) | Barnyardgrass plant response rating (barnyardgrass [1]; [16]) | Crabgrass, Large plant response rating (large crabgrass [2]; [13]) | Plant response rating, Crabgrass, Large (large crabgrass [2]; [14]) | Crabgrass, Large plant response rating (large crabgrass [2]; [15]) | Crabgrass, Large plant response rating (large crabgrass [2]; [16]) | Foxtail, Giant plant response rating (giant foxtail [3]; [13]) | Plant response rating, Foxtail, Giant (giant foxtail [3]; [14]) | Foxtail, Giant plant response rating (giant foxtail [3]; [15]) | Foxtail, Giant plant response rating (giant foxtail [3]; [16]) | Morningglory plant response rating (morningglory [4]; [13]) | Plant response rating, Morningglory (morningglory [4]; [14]) | Morningglory plant response rating (morningglory [4]; [15]) | Morningglory plant response rating (morningglory [4]; [16]) | Pigweed plant response rating (redroot pigweed; [13]) | Plant response rating, Pigweed (redroot pigweed; [14]) | Pigweed plant response rating (redroot pigweed; [15]) | Pigweed plant response rating (redroot pigweed; [16]) | Velvetleaf plant response rating (velvetleaf [5]; [13]) | Plant response rating, Velvetleaf (velvetleaf [5]; [14]) | Velvetleaf plant response rating (velvetleaf [5]; [15]) | Velvetleaf plant response rating (velvetleaf [5]; [16]) | Barnyardgrass plant response rating (0 to 100 scale) (barnyardgrass [6]; [17]) | Barnyardgrass plant response rating (barnyardgrass [6]; [18]) | Plant response rating, Barnyardgrass (barnyardgrass [6]; [19]) | Barnyardgrass plant response rating (barnyardgrass [6]; [20]) | Surinam Grass plant response rating (0 to 100 scale) (Surinam grass; [17]) | Surinam Grass plant response rating (Surinam grass; [18]) | Plant response rating, Surinam Grass (Surinam grass; [19]) | Surinam Grass plant response rating (Surinam grass; [20]) | Cocklebur plant response rating (0 to 100 scale) (cocklebur; [17]) | Cocklebur plant response rating (cocklebur; [18]) | Plant response rating, Cocklebur (cocklebur; [19]) | Cocklebur plant response rating (cocklebur; [20]) | Corn plant response rating (0 to 100 scale) (corn; [17]) | Corn plant response rating (corn; [18]) | Plant response rating, Corn (corn; [19]) | Corn plant response rating (corn; [20]) | Crabgrass, Large plant response rating (0 to 100 scale) (large crabgrass [7]; [17]) | Crabgrass, Large plant response rating (large crabgrass [7]; [18]) | Plant response rating, Crabgrass, Large (large crabgrass [7]; [19]) | Crabgrass, Large plant response rating (large crabgrass [7]; [20]) | Foxtail, Giant plant response rating (0 to 100 scale) (giant foxtail [8]; [17]) | Foxtail, Giant plant response rating (giant foxtail [8]; [18]) | Plant response rating, Foxtail, Giant (giant foxtail [8]; [19]) | Foxtail, Giant plant response rating (giant foxtail [8]; [20]) | Lambsquarters plant response rating (0 to 100 scale) (lambsquarters; [17]) | Plant response rating, Lambsquarters (lambsquarters; [19]) | Morningglory plant response rating (0 to 100 scale) (morningglory [9]; [17]) | Morningglory plant response rating (morningglory [9]; [18]) | Plant response rating, Morningglory (morningglory [9]; [19]) | Pigweed plant response rating (0 to 100 scale) (pigweed; [17]) | Pigweed plant response rating (pigweed; [18]) | Plant response rating, Pigweed (pigweed; [19]) | Velvetleaf plant response rating (velvetleaf [10]; [18]) | Plant response rating, Velvetleaf (velvetleaf [10]; [19]) | Velvetleaf plant response rating (velvetleaf [10]; [20]) | Blackgrass plant response rating (blackgrass; [18]) | Blackgrass plant response rating (blackgrass; [20]) | Wheat plant response rating (wheat; [18]) | Wheat plant response rating (wheat; [20]) | Oat, Wild plant response rating (wild oat; [18]) | Oat, Wild plant response rating (wild oat; [20]) | Rice plant response rating (rice) | Sedge, Umbrella plant response rating [11] | Ducksalad plant response rating (ducksalad) | Barnyardgrass plant response rating (barnyardgrass [12])
10: Lambsquarters plant response rating (lambsquarters; [18])
20: Lambsquarters plant response rating (lambsquarters; [20]) | Morningglory plant response rating (morningglory [9]; [20]) | Pigweed plant response rating (pigweed; [20])
